In series [1] the test system is eIF4E phosphorylation at Serine 209 in HEK 293 cells. The series can be described thus: eIF4E phosphorylation in HEK 293 cells (phospho-specific antibody, fluorescent plate reader).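 Note: Well-level p-eIF4E immunofluorescence normalized to DAPI signal, expressed as percent eIF4E phosphorylation, with IC50 derived from concentration-response curves.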 Format: cell-based. To be noted: Homo sapiens, HEK293; eIF4E phosphorylation at Serine 209, 2 hours exposure; read-out: HEK 293 cell.
Series [2] addresses T1, recombinant full-length human kinase MNK1 (Homo sapiens, UniProt Q9BUB5).
T1 construct: the recombinant full-length human kinase MNK1; made in house; host or cells: insect cells
The series can be described thus: MNK1 radiometric kinase activity assay. Format: biochemical.

The target of series [3] is T2, recombinant full length human kinase MNK2 (Homo sapiens, UniProt Q9HBH9).
T2 construct: the recombinant full length human kinase MNK2; made in house; host or cells: insect cells
T2 sequence (Q9HBH9 whole entry): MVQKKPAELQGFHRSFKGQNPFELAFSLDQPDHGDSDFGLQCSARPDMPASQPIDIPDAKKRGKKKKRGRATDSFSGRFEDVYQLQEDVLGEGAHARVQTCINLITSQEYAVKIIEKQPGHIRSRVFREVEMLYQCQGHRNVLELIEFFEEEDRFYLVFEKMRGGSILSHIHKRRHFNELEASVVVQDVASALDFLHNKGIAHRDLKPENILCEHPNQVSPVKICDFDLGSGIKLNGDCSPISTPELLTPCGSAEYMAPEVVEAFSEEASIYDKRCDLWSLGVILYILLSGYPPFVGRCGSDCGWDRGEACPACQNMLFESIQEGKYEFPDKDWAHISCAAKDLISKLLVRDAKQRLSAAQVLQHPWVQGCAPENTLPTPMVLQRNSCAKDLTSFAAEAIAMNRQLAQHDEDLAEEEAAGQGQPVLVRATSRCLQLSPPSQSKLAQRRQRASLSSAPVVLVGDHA
The series is described as follows: MNK2 radiometric kinase activity assay. The format is biochemical.

The next series has as its system P-gp (human MDR1, ABCB1). The series can be described thus: MDCK-MDR1 permeability (blood-brain barrier permeability). To be noted: dog.
Series [4] can be described thus: Liver microsome stability. The settings on record: mouse, liver microsomes. In general terms: Microsomes from liver hold many membrane-bound enzymes, among them those of drug oxidation.
The mark [5] stands for this setting: radiometric activity assay, read-out: MNK1.
Where [6] appears, read: radiometric activity assay, read-out: MNK2.

Where two headings read alike, the source gives them in different places.

T1 sequence (Q9BUB5 whole entry): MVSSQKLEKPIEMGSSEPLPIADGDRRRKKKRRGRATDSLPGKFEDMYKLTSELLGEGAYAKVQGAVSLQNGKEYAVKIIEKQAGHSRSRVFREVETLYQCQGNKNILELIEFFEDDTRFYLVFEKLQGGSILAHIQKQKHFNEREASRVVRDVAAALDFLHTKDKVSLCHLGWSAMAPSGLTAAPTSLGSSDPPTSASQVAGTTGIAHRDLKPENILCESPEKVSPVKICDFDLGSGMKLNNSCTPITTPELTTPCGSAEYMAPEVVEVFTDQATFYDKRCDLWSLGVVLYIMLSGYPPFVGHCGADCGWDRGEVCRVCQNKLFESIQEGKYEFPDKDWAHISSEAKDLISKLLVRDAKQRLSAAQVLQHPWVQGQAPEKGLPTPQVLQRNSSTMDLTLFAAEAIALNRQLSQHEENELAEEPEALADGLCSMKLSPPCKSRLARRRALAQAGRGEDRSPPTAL

Turning to `CCOC(=O)C1CC12CCC1(CC2)NC(=O)c2c(C)cc(Nc3cc(NC(=O)C4CC4)ncn3)c(=O)n21` (stereo not drawn) [4ET-03-045, ethyl 6″-((6-(cyclopropanecarboxamido)pyrimidin-4-yl)amino)-8″-methyl-1″,5″-dioxo-1″,5″-dihydro-2″H-dispiro [cyclopropane-1,1′-cyclohexane-4′,3″-imidazo[1,5-a]pyridine]-2-carboxylate], the IC50 in series [1] stood at 17.7 nM; in series [2] (setting [5]), 131 nM; in series [3] (setting [6]) it was 12.1 nM.
Consider `Cc1cc(Nc2cc(N)ncn2)c(=O)n2c1C(=O)NC21CCC2(CC1)CN2` (stereo not drawn) [4ET-01-012, 6″-((6-aminopyrimidin-4-yl)amino)-8″-methyl-2″H-dispiro[aziridine-2,1′-cyclohexane-4′,3″-imidazo[1,5-a]pyridine]-1″,5″-dione], for which the IC50 in series [1] amounted to 57.1 nM; in series [2], 27.9 nM; in series [3], 3 nM.
One may read the Papp A→B as how fast a substance crosses the layer from the apical side. The term Papp B→A denotes the apparent permeability from the basolateral to the apical side of a cell layer. The term efflux ratio denotes a quotient of directional permeabilities that is used to spot active efflux. What is called half-life is the time in which the quantity being followed falls by half. Take `Cc1cc(Nc2cc(NC(=O)C3CC3)ncn2)c(=O)n2c1C(=O)NC21CCC2(CC1)CNC2` [4ET-03-049, N-(6-((8″-methyl-1″,5″-dioxo-1″,5″-dihydro-2″H-dispiro[azetidine-3,1′-cyclohexane-4′,3″-imidazo1[1,5-a]pyridin]-6″-yl)amino)pyrimidin-4-yl)cyclopropanecarboxamide]: the IC50 in series [1] came out at 110 nM. For the same molecule, in the series on P-gp (human MDR1, ABCB1), the apparent permeability from apical to basolateral (Papp A→B) at 5 uM was found to be 0.3 ×10⁻⁶ cm/s, the basolateral-to-apical permeability (Papp B→A) at 5 uM came to 0.7 ×10⁻⁶ cm/s and the efflux ratio at 5 uM was determined as 2.1. This molecule displayed a half-life in series [4] of 2.43 h. Moreover, the IC50 in series [2] (setting [5]) came out at 80 nM. For the same molecule, the IC50 in series [3] (setting [6]) was 2.8 nM.
Consider `Cc1cc(Nc2cc(N)ncn2)c(=O)n2c1C(=O)NC21CCC2(CCCC2)C1` (stereo not drawn) [4ET-01-016, 6″-((6-aminopyrimidin-4-yl)amino)-8″-methyl-2″H-dispiro[cyclopentane-1,1′-cyclopentane-3′,3″-imidazo[1,5-a]pyridine]-1″,5″-dione], for which the IC50 in series [1] amounted to 8.9 nM. Besides, in the series with P-gp (human MDR1, ABCB1), the Papp A→B at 5 uM amounted to 48.6 ×10⁻⁶ cm/s, the Papp B→A at 5 uM was found to be 46.5 ×10⁻⁶ cm/s and the efflux ratio at 5 uM came to 1. In series [4], this molecule had a half-life of 11.3 h. The IC50 in series [2] (setting [5]) came to 33 nM. Besides, the IC50 in series [3] (setting [6]) worked out at 3.5 nM.
For `Cc1cc(Nc2cc(NC(=O)C3CC3)ncn2)c(=O)n2c1C(=O)NC21CCC2(CC1)CN(C(=O)OC(C)(C)C)C2` [4ET-03-048, tert-butyl 6″-((6-(cyclopropanecarboxamido)pyrimidin-4-yl)amino)-8″-methyl-1″,5″-dioxo-1″,5″-dihydro-2″H-dispiro[azetidine-3,1′-cyclohexane-4′,3″-imidazo[1,5-a]pyridine]-1-carboxylate], the IC50 in series [1] turned out to be 6.1 nM; in series [2] (setting [5]), 145 nM; in series [3] (setting [6]), 5.2 nM.
On to `Cc1cc(Nc2cc(N)ncn2)c(=O)n2c1C(=O)NC21CC2(CCCCC2)C1` [4ET-01-020, 6″-((6-aminopyrimidin-4-yl)amino)-8″-methyl-2″H-dispiro[cyclohexane-1,1′-cyclobutane-3′,3″-imidazo[1,5-a]pyridine]-1″,5″-dione], for which the IC50 in series [1] turned out to be 4.3 nM. Moreover, in the series with P-gp (human MDR1, ABCB1), the Papp A→B at 5 uM was 46.7 ×10⁻⁶ cm/s, the Papp B→A at 5 uM is 70.7 ×10⁻⁶ cm/s and the efflux ratio at 5 uM was found to be 1.5. Also, the half-life in series [4] stood at 0.793 h. Besides, in series [2] (setting [5]), the IC50 was determined as 36 nM. Besides, the IC50 in series [3] (setting [6]) turned out to be 3 nM.
For `Cc1cc(Nc2cc(N)ncn2)c(=O)n2c1C(=O)NC21CCCC2(CC2)C1` (stereo not drawn) [4ET-01-042, 6″-((6-Aminopyrimidin-4-yl)amino)-8″-methyl-2″H-dispiro[cyclopropane-1,1′-cyclohexane-3′,3″-imidazo[1,5-a]pyridine]-1″,5″-dione], the IC50 in series [1] is 0.8 nM. In the series on P-gp (human MDR1, ABCB1), the Papp A→B at 5 uM came to 50.4 ×10⁻⁶ cm/s, the Papp B→A at 5 uM amounted to 68.9 ×10⁻⁶ cm/s and the efflux ratio at 5 uM is 1.4. The same molecule came in with a half-life in series [4] of 1.88 h. Moreover, the IC50 in series [2] (setting [5]) is 16.5 nM. Moreover, the IC50 in series [3] (setting [6]) was found to be 2 nM.
For `Cc1cc(Nc2cc(NC(=O)C3CC3)ncn2)c(=O)n2c1C(=O)NC21CCC2(CC1)CN2C(=O)OCc1ccccc1` (stereo not drawn) [4ET-03-046], the IC50 is 6.4 nM in series [1], 49.8 nM in series [2] (setting [5]) and 1.7 nM in series [3] (setting [6]).
As for `Cc1cc(Nc2cc(NC(=O)C3(CN)CC3)ncn2)c(=O)n2c1C(=O)NC21CCC2(CC2)CC1` [4ET-03-055, 1-(aminomethyl)-N-(6-((8″-methyl-1″,5″-dioxo-1″,5″-dihydro-2″H-dispiro[cyclopropane-1,1′-cyclohexane-4′,3″-imidazo[1,5-a]pyridin]-6″-yl)amino)pyrimidin-4-yl)cyclopropane-1-carboxamide], in series [1], the IC50 came to 44 nM. Moreover, in the series with P-gp (human MDR1, ABCB1), the Papp A→B at 5 uM was determined as 3 ×10⁻⁶ cm/s, the basolateral-to-apical permeability (Papp B→A) at 5 uM amounted to 57.6 ×10⁻⁶ cm/s and the efflux ratio at 5 uM turned out to be 19. The IC50 in series [2] (setting [5]) came to 127 nM. The IC50 in series [3] (setting [6]) was 29.5 nM.
`Cc1cc(Nc2cc(NC(=O)C3CC4(C3)CN(C)C4)ncn2)c(=O)n2c1C(=O)NC21CCC2(CC2)CC1` [4ET-03-060, 2-methyl-N-(6-((8″-methyl-1″,5″-dioxo-1″,5″-dihydro-2″H-dispiro[cyclopropane-1,1′-cyclohexane-4′,3″-imidazo[1,5-a]pyridin]-638-yl)amino)pyrimidin-4-yl)-2-azaspiro[3.3]heptane-6-carboxamide]: the results for the IC50 in series [1], in series [2] (setting [5]) and in series [3] (setting [6]) were 6.5 nM, 31 nM and 1.7 nM, respectively.
With `Cc1cc(Nc2cc(N)ncn2)c(=O)n2c1C(=O)NC21CC2(CCC2)C1` [4ET-01-009, 6″-((6-aminopyrimidin-4-yl)amino)-8″-methyl-2″H-dispiro[cyclobutane-1,1′-cyclobutane-3′,3″-imidazo[1,5-a]pyridine]-1″,5″-dione], the IC50 was 3.6 nM in series [1], 13.1 nM in series [2] (setting [5]) and 0.8 nM in series [3] (setting [6]).
With `Cc1cc(Nc2cc(NC(=O)C3(CNS(C)(=O)=O)CC3)ncn2)c(=O)n2c1C(=O)NC21CCC2(CC2)CC1` [4ET-03-076, N-(6-((8″-methyl-1″,5″-dioxo-1″,5″-dihydro-2″H-dispiro[cyclopropane-1,1′-cyclohexane-4′,3″-imidazo[1,5-a]pyridin]-638-yl)amino)pyrimidin-4-yl)-1-(methylsulfonamidomethyl)cyclopropane-1-carboxamide], the IC50 is 37.5 nM in series [2] (setting [5]) and 12.2 nM in series [3] (setting [6]).
In the case of `Cc1cc(Nc2cc(NC(=O)[C@H]3[C@@H]4CN(C)C[C@@H]43)ncn2)c(=O)n2c1C(=O)NC21CCC2(CC2)CC1` [4ET-03-061, (1R,5S,6r)-3-methyl-N-(6-((8″-methyl-1″,5″-dioxo-1″,5″-dihydro-2″H-dispiro[cyclopropane-1,1′-cyclohexane-4′,3″-imidazo[1,5-a]pyridin]-638-yl)amino)pyrimidin-4-yl)-3-azabicyclo[3.1.0]hexane-6-carboxamide], the IC50 in series [1] was found to be 5.2 nM; in series [2] (setting [5]), 36.2 nM; in series [3] (setting [6]), 1.7 nM.
As to `Cc1cc(Nc2cc(NC(=O)C3(CN(C)C)CC3)ncn2)c(=O)n2c1C(=O)NC21CCC2(CC2)CC1` [4ET-03-081, 1-((dimethylamino)methyl)-N-(6-((8″-methyl-1″,5″-dioxo-1″,5″-dihydro-2″H-dispiro[cyclopropane-1,1′-cyclohexane-4′,3″-imidazo[1,5-a]pyridin]-6″-yl)amino)pyrimidin-4-yl)cyclopropane-1-carboxamide], in the series on P-gp (human MDR1, ABCB1), the Papp A→B at 5 uM stood at 17.1 ×10⁻⁶ cm/s, the apparent permeability from basolateral to apical (Papp B→A) at 5 uM amounted to 23.4 ×10⁻⁶ cm/s and the efflux ratio at 5 uM was 1.4. The molecule also registered a half-life in series [4] of 1.24 h. Further, the IC50 in series [2] (setting [5]) was 30.3 nM. Further, in series [3] (setting [6]), the IC50 amounted to 10.1 nM.

These data come from patent publication US20250186436A1 (4E Therapeutics, Inc., priority 2021, published 2025).
